Data from patent US5922554A, “Inhibition of cellular uptake of cholesterol” (The Regents of the University of California, priority 1996, dated 1999).

Key:
fibroblast monolayers [1] = assay: Influx/uptake of ^3 H-FC (free cholesterol) from labeled LDL (or plasma, HDL) into normal fibroblast monolayers; format: cell-based, human
fibroblast monolayers [2] = assay: Transfer of intracellular ^3 H-FC to the cell surface (cholesterol oxidase accessibility); format: cell-based, human
Description: This assay utilized the finding (see Example 1) that only FC in the caveolar fraction of the plasma membrane fraction was modified by cholesterol oxidase in unfixed fibroblast monolayers.
The rate at which intracellular LDL-derived ^3 H-FC became accessible at the cell surface was measured as follows. Cell monolayers were labeled with ^3 H-FC LDL under the conditions shown for each experiment. Unbound and adsorbed LDL were removed as described above. In some experiments metabolic inhibitors of different transport steps were then added for 30 min at 15° C. […] Cholesterol oxidase (Boehringer-Manheim, Indianapolis, Ind., USA) was added in PBS to a final concentration of 1 U ml^-1. Incubation was for 4 h at 0° C. The cells were washed with ice-cold PBS, and extracted with 0. 1N NAOH. Cell total lipid was extracted with chloroform-methanol (1:1 v/v). […] .
Fibroblast monolayers were prelabeled with FC-labeled LDL for 2 min at 31° C. Medium and surface-bound labeled LDL were removed as described above. The cells were incubated with inhibitors of intracellular transport for 30 min at 15° C. Movement of FC label to the cell surface remained negligible (FIG. 11).
^a Relative to rate in the absence of inhibitor. Values are expressed

vesicular transport = details: Tageya et al.; cited from earlier work

With `CCN1C(=O)C=CC1=O` [N-ethylmaleimide] the “inhibition of LDL-FC pathway (summary, words)” value (fibroblast monolayers [1]) was “inhibited”, the “effect on cellular uptake of LDL FC in first 10-15 min of incubation” value (fibroblast monolayers [1]; 30 min preincubation, FIG. 8) was “no effect” and the IC (maximal) (fibroblast monolayers [1]; Homo sapiens, Fibroblast, read-out: concentration for maximal inhibition) was 2000 to 5000 µM. The “FC Influx” value (fibroblast monolayers [1]; LDL-FC 60.2 μg ml^-1, 60 min, 37° C., 30 min preequilibration with inhibitor at: Na-azide 1 mM, NH4-vanadate 1 mM, NEM 2 mM, KNO3 50 mM, progesterone 30 μM, forskolin 30 μM, IBMX 100 μM, chloroquine 20 μM) was 0.40 ± 0.01 µg, the “inhibition of uptake of free cholesterol from LDLs (summary)” value (fibroblast monolayers [1]; NEM or KNO3, Example 1, FIG. 8) was > 80% and the “effect on LDL FC uptake” value (fibroblast monolayers [1]; Table 3 conditions) was “blocks selective uptake of FC from LDL”. The “time to complete inhibition by NEM” value (fibroblast monolayers [1]; cells prelabeled to equilibrium (24 h) with ^3 H-FC) was ≤ 30 min, the “FC Influx, % (PBS only = 100.0)” value (fibroblast monolayers [1]; same concentrations and conditions as Table 3 FC influx, 60 min) was 30.0% and the “inhibition of uptake of ^3 H-FC from LDL on further incubation” value (fibroblast monolayers [1]; time course, 30 min preincubation, after 10-15 min, FIG. 8 (5 mM NEM)) was > 80%. For the same compound, the “transport of intracellular ^3 H-FC to the cell surface/caveolae” value (fibroblast monolayers [2]) was “inhibited the return of FC to the cell surface, but less effectively than did nocodazole”, the “% transfer of intracellular ^3 H-FC to the cell surface, relative to rate in absence of inhibitor” value (fibroblast monolayers [2]; NEM 2 mM, KNO3 50 mM, nocodazole, brefeldin A, vinblastine 40 μM, pulse labeled 2 min 31° C., then 30 min 31° C.) was 50 ± 3% and the “concentration for maximal inhibition in assays of vesicular transport in vitro” value (vesicular transport) was 1 mM.
